Measurements reported in patent publication US4824836A, “Spiro (4,5) decone compounds” (Adir et Compagnie, priority 1987, dated 1989).

Tested on: Peritoneal rat mastocytes
Test: mastocyte degranulation test in vitro (inhibition of compound 48/80-induced histamine granule release)
Assay type: cell-based
Conditions: rat peritoneal mastocytes incubated with compound 48/80; dose that inhibits histamine granule release by 50%
Method: The compounds of the invention and fenspiride, a prior art product taken as reference substance, were subjected to the mastocyte degranulation test:
Peritoneal rat mastocytes are incubated in vitro in the presence of compound 48/80, which causes histamine granules to be released. The protective effect of the tested compounds is expressed in IC50, that is to say the (molar) dose that inhibits this release by 50%.

SMILES | IC50 | Mastocyte degranulation in vitro - IC50
CCCc1c(OCC(O)CN2CCC3(CC2)CNC(=O)O3)ccc(C(C)=O)c1O (centres unmarked) [Example 1c, 8-[3-(2-propyl-3-hydroxy-4-acetylphenoxy)-2-hydroxypropyl]-1-oxa-2-oxo-3,8-diaza-spiro[4.5]decane] | 1000 µM | 
CCCc1c(OCCN2CCC3(CC2)CNC(=O)O3)ccc(C(C)=O)c1O [Example 1a, 8-[2-(2-propyl-3-hydroxy-4-acetylphenoxy)ethyl]-1-oxa-2-oxo-3,8-diaza-spiro[4.5]decane] | 200 µM | 
CC(=O)Oc1c(C(C)=O)ccc(OCCCN2CCC3(CC2)CN(C(C)=O)C(=O)O3)c1CC(C)C [Example 4d, 8-[3-(2-isobutyl-3-acetoxy-4-acetylphenoxy)propyl]-1-oxa-2-oxo-3,8-diaza-3-acetyl-spiro[4.5]decane] | 730 µM | 
CCCc1c(OCCCN2CCC3(CC2)CNC(=O)O3)ccc(C(C)=O)c1OC(C)=O [Example 6, 8-[3-(2-propyl-3-acetoxy-4-acetylphenoxy)propyl]-1-oxa-2-oxo-3,8-diaza-spiro[4.5]decane] | 1200 µM | 
CCCc1c(OCCN2CCC3(CC2)OC(=O)NC3C)ccc(C(C)=O)c1O (centres unmarked) [Example 1f, 8-[2-(2-propyl-3-hydroxy-4-acetylphenoxy)ethyl]-1-oxa-2-oxo-3,8-diaza-4-methyl-spiro[4.5]decane] | 100 µM | 
CCCc1c(OCCCN2CCC3(CC2)CNC(=O)O3)ccc(C(C)=O)c1O [Example 1, 8-[3-(2-propyl-3-hydroxy-4-acetylphenoxy)propyl]-1-oxa-2-oxo-3,8-diaza-spiro[4.5]decane] | 240 µM | 
C=CCc1c(OCCCN2CCC3(CC2)CN(C(C)=O)C(=O)O3)ccc(C(C)=O)c1OC(C)=O [Example 4a, 8-[3-(2-allyl-3-acetoxy-4-acetylphenoxy)propyl]-1-oxa-2-oxo-3,8-diaza-3-acetyl-spiro[4.5]decane] | 2500 µM | 
CCCc1c(OCCCN2CCC3(CC2)CN(C(C)=O)C(=O)O3)ccc(C(C)=O)c1OC(C)=O [Example 4, 8-[3-(2-propyl-3-acetoxy-4-acetylphenoxy)propyl]-1-oxa-2-oxo-3,8-diaza-3-acetyl-spiro[4.5]decane] | 720 µM | 
CCCc1c(OCCCCCCN2CCC3(CC2)CNC(=O)O3)ccc(C(C)=O)c1O [Example 1e, 8-[6-(2-propyl-3-hydroxy-4-acetylphenoxy)hexyl]-1-oxa-2-oxo-3,8-diaza-spiro[4.5]decane] | 92 µM | 
CCc1c(OCCCN2CCC3(CC2)CN(C(C)=O)C(=O)O3)ccc(C(C)=O)c1OC(C)=O [Example 4c, 8-[3-(2-ethyl-3-acetoxy-4-acetylphenoxy)propyl]-1-oxa-2-oxo-3,8-diaza-3-acetyl-spiro[4.5]decane] | > 1000 µM | 
CCCc1c(OCCCCCN2CCC3(CC2)CNC(=O)O3)ccc(C(C)=O)c1O [Example 1d, 8-[5-(2-propyl-3-hydroxy-4-acetylphenoxy)pentyl]-1-oxa-2-oxo-3,8-diaza-spiro[4.5]decane] | 110 µM | 
CCCc1c(OCCCCCN2CCC3(CC2)CNC(=O)O3)ccc(C(C)=O)c1OC(C)=O [Example 6a, 8-[5-(2-propyl-3-acetoxy-4-acetylphenoxy)pentyl]-1-oxa-2-oxo-3,8-diaza-spiro[4.5]decane] | 2000 µM | 
CCCc1c(OCCCCN2CCC3(CC2)CNC(=O)O3)ccc(C(C)=O)c1O [Example 1b, 8-[4-(2-propyl-3-hydroxy-4-acetylphenoxy)butyl]-1-oxa-2-oxo-3,8-diaza-spiro[4.5]decane] | 200 µM | 
CCCc1c(OCCCCCN2CCC3(CC2)CN(C(C)=O)C(=O)O3)ccc(C(C)=O)c1OC(C)=O [Example 4b, 8-[5-(2-propyl-3-acetoxy-4-acetylphenoxy)pentyl]-1-oxa-2-oxo-3,8-diaza-3-acetyl-spiro[4.5]decane] | 1000 µM | 

The next lines start with the values.

IC50 | Mastocyte degranulation in vitro - IC50 | SMILES
100 µM |  | CCCc1c(OCCCN2CCC3(CC2)CNC(=O)O3)ccc2c1OCCC2=O [Example 1j]
750 µM |  | C=CCc1c(OCCCN2CCC3(CC2)CN(C(C)=O)C(=O)O3)ccc(C(C)=O)c1O [Example 5, 8-[3-(2-allyl-3-hydroxy-4-acetylphenoxy)propyl]-1-oxa-2-oxo-3,8-diaza-3-acetyl-spiro[4.5]decane]
100 µM |  | CCCc1c(OCCCN2CCC3(CC2)CNC(=O)O3)ccc2c(=O)cc(C(=O)OCC)oc12 [Example 1i, 8-[3-(2-ethoxycarbonyl-8-propyl-7-chrom-4-onyloxy)propyl]-1-oxa-2-oxo-3,8-diaza-spiro[4.5]decane]
830 µM |  | CCc1c(OCCCN2CCC3(CC2)CNC(=O)O3)ccc(C(C)=O)c1O [Example 1k, 8-[3-(2-ethyl-3-hydroxy-4-acetylphenoxy)propyl]-1-oxa-2-oxo-3,8-diaza-spiro[4.5]decane]
200 µM |  | CCCc1c(OCCCN2CCC3(CC2)OC(=O)NC3C)ccc(C(C)=O)c1O (centres unmarked) [Example 2, 8-[3-(2-propyl-3-hydroxy-4-acetylphenoxy)propyl]-1-oxa-2-oxo-3,8-diaza-4-methyl-spiro[4.5]decane]
1000 µM |  | CCCc1c(OCCCN2CCC3(CC2)CNC(=O)O3)ccc2c(=O)cc(C(=O)O)oc12 [Example 3, 8-[3-(2-carboxy-8-propyl-7-chrom-4-onyloxy)propyl]-1-oxa-2-oxo-3,8-diaza-spiro[4.5]decane]
 | inactive | O=C1NCC2(CCN(CCc3ccccc3)CC2)O1 [fenspiride, reference compound]
250 µM |  | C=CCc1c(OCCCN2CCC3(CC2)CNC(=O)O3)ccc(C(C)=O)c1O [Example 1h, 8-[3-(2-allyl-3-hydroxy-4-acetylphenoxy)propyl]-1-oxa-2-oxo-3,8-diaza-spiro[4.5]decane]
116 µM |  | CC(=O)c1ccc(OCCCN2CCC3(CC2)CNC(=O)O3)c(CC(C)C)c1O [Example 1l, 8-[3-(2-isobutyl-3-hydroxy-4-acetylphenoxy)propyl]-1-oxa-2-oxo-3,8-diaza-spiro[4.5]decane]
